From patent publication US20080155704A1, “Methods and Compositions for Determining in vivo Activity of BiP” (King's College London, priority 2006, published 2008)

Key:
[1] = system: splenocytes and lymph node cells; assay: Intravenous injection of BiP into DBA mice, splenocytes and lymph node cells analysed; assay type: in vivo, mouse
Protocol: The biomarkers were investigated in two situations: 1) when 50.10^6 human peripheral blood mononuclear cells were injected intraperitoneally, with or without BiP (100 μg), into a mouse and the cells were harvested from the peritoneum 11 days later; or (2) BiP (200 μg) was injected intravenously into a mouse and the spleens and lymph nodes removed 11 days later.
Mice were sacrificed at the end of the experiment and the spleens and lymph nodes removed. The spleens and lymph nodes were then gently pushed through a fine mesh to produce a single cell suspension. The cells were then either set up in culture or stained as for human cells following the protocol below.
IF staining of mouse cells was as described for human cells above.
Mice were given a single dose of BiP and left for 11 days before they were sacrificed and their spleens and lymph nodes removed for analysis. The splenocytes and lymph node cells were pooled and used in immunofluorescence and flow cytometry studies. They were also set up in a simple recall antigen proliferation study to check that BiP had been successfully administered at time-point zero.
Cells were examined for: CD3, CD4, CD8, CD25, CD122, CCR4, intracellular CTLA-4 and cells actively producing IL-10 and interferon (IFN)γ.
Thus reduction of IFN (decreased IFN production) is an excellent marker of BiP function in vivo.

[2] = system: human rheumatoid arthritis synovial membrane (RASM); assay: Human RASM transplanted in SCID mice (RASM/SCID chimeric mouse); assay type: in vivo, human tissue in SCID mice
Protocol: Small pieces of human synovial tissue from patients with rheumatoid arthritis were transplanted into SCID mice. […] CD86, HLA-DR, TNFα and IL-6 expression was measured by immunohistology. (B) the weight of explants retrieved from the mice treated as indicated after 12d.
This study used the previously developed SCID-HuRAg murine model (20). Briefly, pannus tissue, consisting of the leading edge of the invading synovial membrane into articular cartilage and bone, was collected as a single mass from RA patients at the time of arthroplastic surgery with full ethical approval. A block of 4-8 mm in diameter was implanted subcutaneously into the back of 6- to 7-week-old male SCID mice (CB.17/Icr; Charles River Japan, Tokyo, Japan), which had been bred under specific pathogen-free conditions. Successful implantation of human RA tissue was assessed visually 4 weeks after implantation, after which therapeutic manipulation of the mice was undertaken. […] The mice were sacrificed 12 days after injection to allow removal of the implanted tissue.
The degree of synovial inflammation of the implanted tissue was assessed as previously described. The histological findings were scored according to two different scoring systems: Koizumi's (40) or Rooney's method (41).
Paraffin embedded tissue sections were used for immunostaining for CD86 and HLA-DR. Frozen tissue sections were stained for the detection of cytokines (TNF, IL-1, IL-6, and IL-10). The tissue sections were blocked for endogenous peroxidase activity with 0.3% hydrogen peroxide in methanol for 15 min. Non-specific antibody binding was blocked with 10% normal goat serum for 1 hr at room temperature. The sections were incubated with specific antibody or normal IgG for 1 hr at 37° C. The sections incubated with anti-CD86 antibody were treated with biotinylated secondary antibody, then visualised using a kit (Vectastatin ABC kit, Vector) with 3-amino-n-ethylcarbazole (Nichirei, Tokyo) as a substrate. The other sections were treated with peroxidase-conjugated anti-mouse IgG (Histofine Simple Stain MAX PO; Nichirei, Tokyo) for 30 min at room temperature and developed with 3-amino-n-ethylcarbazole (Nichirei, Tokyo) for visualization. Sections were counterstained with Mayer haematoxylin for 10 sec and mounted in aqueous permanent mounting solution (Nichirei, Tokyo).
The serum levels of human IL-4, IL-6 and IL-10 were measured by a quantitative sandwich enzyme immunoassay technique (Quantikine HS, R&D systems) according to the manufacturer's instructions.

[3] = BiP 200 μg/mouse i.v., 11 days, n=3
[4] = 10 μg/mouse single i.v. injection, 12 days
[5] = BiP 10 μg/animal i.v., 12d (FIG. 15A)

In the case of “BiP: 78 kD endoplasmic reticulum chaperone protein as disclosed in WO 00/21995; recombinant human protein”, the “intracellular CTLA-4” value ([1]; BiP 200 μg/mouse i.v., 11 days) is reported as “Increased intracellular CTLA-4”, the IL-10 producing cells [1, 3] is reported as 6.1±1.3% and the “cells producing IFN gamma after stimulation by concanavalin A” value [1, 3] is reported as 3.9±1.7%. The “% of CD8CD122+ cells” value ([1]; BiP 200 μg/mouse i.v., 11 days, pooled splenocytes and lymph node cells, n=3) was 26.3±3.7%, the “IFN production by cells cultured overnight with con A” value ([1]; cells from mice given BiP 11 days previously (FIG. 5)) was “significant reduction in IFN production” and the “human IL-6 in mouse sera” value ([2]; 10 μg/mouse i.v., 12 days) was 0.5 ± 0.2 pg/mL. For the same substance, the “Koizumi score of synovial inflammation” value [2, 4] was 6.1±2.6, the “Rooney score of synovial inflammation” value [2, 4] was 16±6 and the IL-10 in explants ([2]; BiP 10 μg/animal i.v., 12d) was “no increase in IL-10 was detected”. For the same substance, the “expression of CD86 and HLA-DR in explant sections (immunohistology)” value [2, 5] was “Significantly reduced expression of CD86 and HLA-DR” and the “production of human TNFα and IL-6 in explants (immunohistology)” value [2, 5] was “decreased production of human TNFα and IL-6”.
